{"source": "PubChem BioAssay AID1259408", "about": "(Genetic Toxicology Data Bank (GENE-TOX), 2018)", "test_system": "GENE-TOX genotoxicity assays, various organisms and cells", "assay": "GENE-TOX mutagenicity studies", "conditions": "for call: Assay Type: In vivo carcinogenicity studies", "key": {"[1]": {"conditions": "Species/Cell Type: Mammalian polychromatic erythrocytes, Assay Type: Micronucleus test, chromosome aberrations, Assay Code: MNT+, Evaluation Type: Evaluation A (Pre-1980)"}, "[2]": {"conditions": "Species/Cell Type: Nonhuman, Assay Code: CCG+, Evaluation Type: Evaluation A (Pre-1980)"}, "[3]": {"conditions": "Species/Cell Type: Saccharomyces cerevisiae, Assay Type: Mitotic recombination or gene conversion, Assay Code: YEC+*, Activation: With metabolic activation, Evaluation Type: Evaluation A (Pre-1980)"}, "[4]": {"conditions": "Species/Cell Type: Salmonella typhimurium (one or more of the five standard strains: TA98, TA100, TA1535, TA1537, and TA1538), Assay Type: Histidine reverse gene mutation, Ames assay, Assay Code: SAL+*, Activation: With metabolic activation, Evaluation Type: Evaluation A (Pre-1980)"}, "[5]": {"conditions": "Species/Cell Type: Salmonella typhimurium (one or more of the five standard strains: TA98, TA100, TA1535, TA1537, and TA1538), Assay Type: Histidine reverse gene mutation, Ames assay, Assay Code: SAL+, Evaluation Type: Evaluation A (Pre-1980)"}, "[6]": {"conditions": "Species/Cell Type: Human lymphocytes, Assay Type: Sister-chromatid exchange (SCE) in vitro, Assay Code: SCL+, Evaluation Type: Evaluation B (Post-1980)"}, "[7]": {"conditions": "Species/Cell Type: Human lymphocytes, Assay Type: Sister-chromatid exchange (SCE) in vitro, Assay Code: SCLT, Evaluation Type: Evaluation B (Post-1980)"}, "[8]": {"conditions": "Species/Cell Type: Human, Assay Type: Sister-chromatid exchange (SCE) in vitro, Assay Code: SC1+, Evaluation Type: Evaluation B (Post-1980)"}, "[9]": {"conditions": "Species/Cell Type: Human, Assay Type: Sister-chromatid exchange (SCE) in vitro, Assay Code: SC1T, Evaluation Type: Evaluation B (Post-1980)"}, "[10]": {"conditions": "Species/Cell Type: Salmonella typhimurium (one or more of the five standard strains: TA98, TA100, TA1535, TA1537, and TA1538), Assay Type: Histidine reverse gene mutation, Ames assay, Assay Code: SALT, Evaluation Type: Evaluation A (Pre-1980)"}, "[11]": {"conditions": "Species/Cell Type: Salmonella typhimurium (one or more of the five standard strains: TA98, TA100, TA1535, TA1537, and TA1538), Assay Type: Histidine reverse gene mutation, Ames assay, Assay Code: SAL-, Evaluation Type: Evaluation A (Pre-1980)"}, "[12]": {"conditions": "Species/Cell Type: Drosophila melanogaster, Assay Type: Sex-linked recessive lethal gene mutation, Assay Code: SRLT, Evaluation Type: Evaluation A (Pre-1980)"}}, "note": "Active and inactive are the calls of the source. No rule for the calls is given here."}
{"smiles": "O=P1(NCCCl)OCCCN1CCCl", "note": "(centres undefined)", "values": [{"measurement": "mutagenic call", "setting": "Species/Cell Type: Drosophila melanogaster, Assay Type: Aneuploidy, partial sex chromosome loss, chromosome aberrations, Assay Code: DAP-M, Evaluation Type: Evaluation A (Pre-1980)", "result": "inactive; negative"}, {"measurement": "mutagenic call", "setting": "Species/Cell Type: Drosophila melanogaster, Assay Type: Aneuploidy, whole sex chromosome loss, chromosome aberrations, Assay Code: DAC-M, Evaluation Type: Evaluation A (Pre-1980)", "result": "inactive; negative"}, {"measurement": "mutagenic call", "setting": "Species/Cell Type: Drosophila melanogaster, Assay Type: Sex-linked recessive lethal gene mutation, Assay Code: SRL+, Evaluation Type: Evaluation A (Pre-1980)", "result": "active; positive"}, {"measurement": "mutagenic call", "setting": "[1]", "result": "active; positive"}, {"measurement": "call", "setting": "[2]", "result": "active; positive"}, {"measurement": "mutagenic call", "setting": "Species/Cell Type: Saccharomyces cerevisiae, Assay Type: Forward and reverse gene mutation, mitotic recombination and gene conversion, DNA effects, body fluid assay, Assay Code: BFC+, Evaluation Type: Evaluation A (Pre-1980)", "result": "active; positive"}, {"measurement": "mutagenic call", "setting": "Species/Cell Type: Saccharomyces cerevisiae, Assay Type: Forward and reverse gene mutation, mitotic recombination and gene conversion, host-mediated assay, Assay Code: HMET, Evaluation Type: Evaluation A (Pre-1980)", "result": "no conclusion"}, {"measurement": "mutagenic call", "setting": "[3]", "result": "active; positive"}, {"measurement": "mutagenic call", "setting": "[4]", "result": "active; positive"}]}
{"smiles": "COc1ccc(N2CCN(c3ccc([N+](=O)[O-])c4no[n+]([O-])c34)CC2)cc1", "values": [{"measurement": "mutagenic call", "setting": "[5]", "result": "active; positive"}]}
{"smiles": "CC[C@]1(O)CC2CN(CCc3c([nH]c4ccccc34)[C@@](C(=O)OC)(c3cc4c(cc3OC)N(C=O)[C@H]3[C@@](O)(C(=O)OC)[C@H](OC(C)=O)[C@]5(CC)C=CCN6CC[C@]43[C@@H]65)C2)C1", "note": "(some centres undefined)", "values": [{"measurement": "mutagenic call", "setting": "Species/Cell Type: Human lymphocytes, Assay Type: Sister-chromatid exchange (SCE) in vitro, Assay Code: SCL+, Evaluation Type: Evaluation A (Pre-1980)", "result": "active; positive"}, {"measurement": "mutagenic call", "setting": "[6]", "result": "active; positive"}, {"measurement": "mutagenic call", "setting": "[7]", "result": "no conclusion"}, {"measurement": "mutagenic call", "setting": "[8]", "result": "active; positive"}, {"measurement": "mutagenic call", "setting": "[9]", "result": "no conclusion"}, {"measurement": "mutagenic call", "setting": "[1]", "result": "active; positive"}, {"measurement": "mutagenic call", "setting": "Species/Cell Type: Mouse (C3H/10T1/2) cells, Assay Type: Cell transformation, Assay Code: CTH-, Evaluation Type: Evaluation A (Pre-1980)", "result": "inactive; negative"}, {"measurement": "mutagenic call", "setting": "Species/Cell Type: Nonhuman, Assay Type: Sister-chromatid exchange (SCE) in vitro, Assay Code: SC2+, Evaluation Type: Evaluation B (Post-1980)", "result": "active; positive"}, {"measurement": "mutagenic call", "setting": "Species/Cell Type: Nonhuman, Assay Type: Sister-chromatid exchange (SCE) in vivo, Assay Code: SC3T, Evaluation Type: Evaluation B (Post-1980)", "result": "no conclusion"}]}
{"smiles": "Oc1ccc2c3c(cccc13)CC2", "values": [{"measurement": "mutagenic call", "setting": "[10]", "result": "no conclusion"}]}
{"smiles": "[S]=[Cd]", "values": [{"measurement": "mutagenic call", "setting": "Species/Cell Type: Human lymphocytes or leukocytes, Assay Type: Chromosome aberrations in vitro, Assay Code: CY7+, Evaluation Type: Evaluation A (Pre-1980)", "result": "active; positive"}, {"measurement": "call", "setting": "[2]", "result": "active; positive"}]}
{"smiles": "Oc1ccc2ccc3cc4ccccc4c4ccc1c2c34", "values": [{"measurement": "mutagenic call", "setting": "Species/Cell Type: Chinese hamster lung (V79) cells, Assay Type: Forward gene mutation at the HPRT or ouabain locus, Assay Code: V79+/-*, Activation: With metabolic activation, Evaluation Type: Evaluation A (Pre-1980)", "result": "inactive; positive without activation, negative with activation"}, {"measurement": "call", "setting": "Species/Cell Type: Nonhuman, Assay Code: CCGT, Evaluation Type: Evaluation A (Pre-1980)", "result": "no conclusion"}, {"measurement": "mutagenic call", "setting": "[5]", "result": "active; positive"}]}
{"smiles": "CCc1ccccc1", "values": [{"measurement": "mutagenic call", "setting": "[6]", "result": "active; positive"}, {"measurement": "mutagenic call", "setting": "[8]", "result": "active; positive"}, {"measurement": "mutagenic call", "setting": "Species/Cell Type: Syrian hamster embryo (SA7/SHE) cells, Assay Type: Cell transformation, viral enhanced, Assay Code: CT7-, Evaluation Type: Evaluation A (Pre-1980)", "result": "inactive; negative"}]}
{"smiles": "Cc1cc2c(c3ccc4ccccc4c13)CCC2C", "note": "(centres undefined)", "values": [{"measurement": "mutagenic call", "setting": "[4]", "result": "active; positive"}]}
{"smiles": "Cc1ncc(COP(=O)(O)O)c(C)c1O", "values": [{"measurement": "mutagenic call", "setting": "Species/Cell Type: Human lymphocytes, Assay Type: Sister-chromatid exchange (SCE) in vitro, Assay Code: SCL+D, Dose Response: With dose response, Evaluation Type: Evaluation B (Post-1980)", "result": "active; positive"}, {"measurement": "mutagenic call", "setting": "Species/Cell Type: Human, Assay Type: Sister-chromatid exchange (SCE) in vitro, Assay Code: SC1+D, Dose Response: With dose response, Evaluation Type: Evaluation B (Post-1980)", "result": "active; positive"}]}
{"smiles": "O=c1[nH]c(=O)[nH]c(=O)[nH]1", "values": [{"measurement": "mutagenic call", "setting": "Species/Cell Type: Nonhuman, Assay Type: Sister-chromatid exchange (SCE) in vitro, Assay Code: SC2-, Evaluation Type: Evaluation B (Post-1980)", "result": "inactive; negative"}]}
{"smiles": "COc1ccc2nc3cc(Cl)ccc3c(NCCCSCCCl)c2n1", "values": [{"measurement": "mutagenic call", "setting": "Species/Cell Type: Chinese hamster ovary (CHO) cells, Assay Type: Forward gene mutation at the HPRT locus, Assay Code: CHO+, Evaluation Type: Evaluation B (Post-1980)", "result": "active; positive"}]}
{"smiles": "C=CC(OC(C)=O)c1ccccc1", "note": "(centres undefined)", "values": [{"measurement": "mutagenic call", "setting": "[10]", "result": "no conclusion"}]}
{"smiles": "O=P(OCCCl)(OCCCl)OCCCl", "values": [{"measurement": "mutagenic call", "setting": "Species/Cell Type: Mammalian polychromatic erythrocytes, Assay Type: Micronucleus test, chromosome aberrations, Assay Code: MNT+, Evaluation Type: Evaluation B (Post-1980)", "result": "active; positive"}, {"measurement": "mutagenic call", "setting": "[11]", "result": "inactive; negative"}]}
{"smiles": "CCc1cccc(CC)c1N(COC)C(=O)CCl", "values": [{"measurement": "mutagenic call", "setting": "[3]", "result": "active; positive"}]}
{"smiles": "O[C@H]1C=Cc2c(cc3ccc4cccc5ccc2c3c45)[C@@H]1O", "values": [{"measurement": "mutagenic call", "setting": "Species/Cell Type: Chinese hamster lung (V79) cells, Assay Type: Forward gene mutation at the HPRT or ouabain locus, Assay Code: V79+*, Activation: With metabolic activation, Evaluation Type: Evaluation A (Pre-1980)", "result": "active; positive"}, {"measurement": "call", "setting": "[2]", "result": "active; positive"}, {"measurement": "call", "setting": "Species/Cell Type: Nonhuman, Assay Code: CCG+L, Evaluation Type: Evaluation A (Pre-1980)", "result": "active; positive"}, {"measurement": "mutagenic call", "setting": "Species/Cell Type: Nonhuman, Assay Type: Sister-chromatid exchange (SCE) in vitro, Assay Code: SC2+D, Dose Response: With dose response, Evaluation Type: Evaluation A (Pre-1980)", "result": "active; positive"}, {"measurement": "mutagenic call", "setting": "Species/Cell Type: Nonhuman, Assay Type: Sister-chromatid exchange (SCE) in vitro, Assay Code: SC2+D, Dose Response: With dose response, Evaluation Type: Evaluation B (Post-1980)", "result": "active; positive"}, {"measurement": "mutagenic call", "setting": "[4]", "result": "active; positive"}]}
{"smiles": "CC1CN(N=O)CC(C)N1N=O", "note": "(centres undefined)", "values": [{"measurement": "mutagenic call", "setting": "[4]", "result": "active; positive"}]}
{"smiles": "OC[C@@H](O)C(O)[C@@H](O)CO", "note": "(some centres undefined)", "values": [{"measurement": "mutagenic call", "setting": "Species/Cell Type: Human, Assay Type: Sister-chromatid exchange (SCE) in vitro, Assay Code: SC1-, Evaluation Type: Evaluation B (Post-1980)", "result": "inactive; negative"}, {"measurement": "mutagenic call", "setting": "Species/Cell Type: Salmonella typhimurium, Assay Type: Forward and reverse gene mutation, body fluid assay, Assay Code: BFU-, Evaluation Type: Evaluation A (Pre-1980)", "result": "inactive; negative"}, {"measurement": "mutagenic call", "setting": "Species/Cell Type: Salmonella typhimurium, Assay Type: Forward and reverse gene mutation, host-mediated assay, Assay Code: HMA-, Evaluation Type: Evaluation A (Pre-1980)", "result": "inactive; negative"}]}
{"smiles": "C=CC(O)c1ccc2c(c1)OCO2", "note": "(centres undefined)", "values": [{"measurement": "mutagenic call", "setting": "[12]", "result": "no conclusion"}, {"measurement": "mutagenic call", "setting": "Species/Cell Type: Escherichia coli polA (W3119 vs P3478), Assay Type: Rec-assay, DNA effects (bacterial DNA repair), Assay Code: RE1-, Evaluation Type: Evaluation A (Pre-1980)", "result": "inactive; negative"}, {"measurement": "mutagenic call", "setting": "Species/Cell Type: Human diploid fibroblasts, Assay Type: Unscheduled DNA synthesis (UDS) in vitro, DNA effects, Assay Code: UDH+, Evaluation Type: Evaluation A (Pre-1980)", "result": "active; positive"}, {"measurement": "call", "setting": "[2]", "result": "active; positive"}, {"measurement": "mutagenic call", "setting": "Species/Cell Type: Saccharomyces cerevisiae, Assay Type: Mitotic recombination or gene conversion, Assay Code: YEH+/-*, Activation: With metabolic activation, Evaluation Type: Evaluation A (Pre-1980)", "result": "inactive; positive without activation, negative with activation"}, {"measurement": "mutagenic call", "setting": "[11]", "result": "inactive; negative"}]}
{"smiles": "O=S(O)S(=O)O", "values": [{"measurement": "mutagenic call", "setting": "[7]", "result": "no conclusion"}, {"measurement": "mutagenic call", "setting": "[9]", "result": "no conclusion"}]}
{"smiles": "O=C[C@H](O)[C@@H](O)[C@H](O)[C@H](O)CO", "values": [{"measurement": "mutagenic call", "setting": "Species/Cell Type: Mammalian polychromatic erythrocytes, Assay Type: Micronucleus test, chromosome aberrations, Assay Code: MNTT, Evaluation Type: Evaluation A (Pre-1980)", "result": "no conclusion"}, {"measurement": "mutagenic call", "setting": "Species/Cell Type: Mouse, Sex: Male, Assay Type: Sperm morphology, Assay Code: SPI-, Evaluation Type: Evaluation A (Pre-1980)", "result": "inactive; negative"}]}
{"smiles": "Cc1ccc(S(N)(=O)=O)cc1", "values": [{"measurement": "mutagenic call", "setting": "[12]", "result": "no conclusion"}, {"measurement": "mutagenic call", "setting": "Species/Cell Type: Mammalian polychromatic erythrocytes, Assay Type: Micronucleus test, chromosome aberrations, Assay Code: MNTT, Evaluation Type: Evaluation B (Post-1980)", "result": "no conclusion"}]}
